Results as given in patent publication US8507489B2, “Bicyclic triazoles as protein kinase modulators” (SGX Pharmaceuticals, Inc., priority 2006, dated 2013).

What was measured:
[1] = target: c-MET (Homo sapiens, UniProt P08581); test: MET luminescence-based enzyme assay (Kinase-Glo); format: biochemical
Experimental: The subscript designates positive or negative controls. The Z′ score for a robust screening assay should be ≧0.50. The typical threshold=μ+−3*σ+. Any value that falls below the threshold was designated a “hit”.
MET Luminescence-Based Enzyme Assay
MET kinase (see below), Kinase-Glo™ (Promega Cat#V6712).
Negative controls contained 10 μM staurosporine.

[2] = target: T1, TPR-MET Ba/F3 cells (Homo sapiens, UniProt P08581); test: 96-well XTT cell survival assay (Ba/F3 cells); format: cell-based; conditions: cells marked (BaF3), 72 hours; read-out: XTT Assay IC50 (BaF3)
T1 construct: TPR-MET Ba/F3 cells were created by stably transducing the human TPR-MET gene into Ba/F3 cells using a retroviral system; fused on or other part: P12270 (Nucleoprotein TPR)
T1 sequence (P08581 whole entry, change not shown, the tested form may be a part): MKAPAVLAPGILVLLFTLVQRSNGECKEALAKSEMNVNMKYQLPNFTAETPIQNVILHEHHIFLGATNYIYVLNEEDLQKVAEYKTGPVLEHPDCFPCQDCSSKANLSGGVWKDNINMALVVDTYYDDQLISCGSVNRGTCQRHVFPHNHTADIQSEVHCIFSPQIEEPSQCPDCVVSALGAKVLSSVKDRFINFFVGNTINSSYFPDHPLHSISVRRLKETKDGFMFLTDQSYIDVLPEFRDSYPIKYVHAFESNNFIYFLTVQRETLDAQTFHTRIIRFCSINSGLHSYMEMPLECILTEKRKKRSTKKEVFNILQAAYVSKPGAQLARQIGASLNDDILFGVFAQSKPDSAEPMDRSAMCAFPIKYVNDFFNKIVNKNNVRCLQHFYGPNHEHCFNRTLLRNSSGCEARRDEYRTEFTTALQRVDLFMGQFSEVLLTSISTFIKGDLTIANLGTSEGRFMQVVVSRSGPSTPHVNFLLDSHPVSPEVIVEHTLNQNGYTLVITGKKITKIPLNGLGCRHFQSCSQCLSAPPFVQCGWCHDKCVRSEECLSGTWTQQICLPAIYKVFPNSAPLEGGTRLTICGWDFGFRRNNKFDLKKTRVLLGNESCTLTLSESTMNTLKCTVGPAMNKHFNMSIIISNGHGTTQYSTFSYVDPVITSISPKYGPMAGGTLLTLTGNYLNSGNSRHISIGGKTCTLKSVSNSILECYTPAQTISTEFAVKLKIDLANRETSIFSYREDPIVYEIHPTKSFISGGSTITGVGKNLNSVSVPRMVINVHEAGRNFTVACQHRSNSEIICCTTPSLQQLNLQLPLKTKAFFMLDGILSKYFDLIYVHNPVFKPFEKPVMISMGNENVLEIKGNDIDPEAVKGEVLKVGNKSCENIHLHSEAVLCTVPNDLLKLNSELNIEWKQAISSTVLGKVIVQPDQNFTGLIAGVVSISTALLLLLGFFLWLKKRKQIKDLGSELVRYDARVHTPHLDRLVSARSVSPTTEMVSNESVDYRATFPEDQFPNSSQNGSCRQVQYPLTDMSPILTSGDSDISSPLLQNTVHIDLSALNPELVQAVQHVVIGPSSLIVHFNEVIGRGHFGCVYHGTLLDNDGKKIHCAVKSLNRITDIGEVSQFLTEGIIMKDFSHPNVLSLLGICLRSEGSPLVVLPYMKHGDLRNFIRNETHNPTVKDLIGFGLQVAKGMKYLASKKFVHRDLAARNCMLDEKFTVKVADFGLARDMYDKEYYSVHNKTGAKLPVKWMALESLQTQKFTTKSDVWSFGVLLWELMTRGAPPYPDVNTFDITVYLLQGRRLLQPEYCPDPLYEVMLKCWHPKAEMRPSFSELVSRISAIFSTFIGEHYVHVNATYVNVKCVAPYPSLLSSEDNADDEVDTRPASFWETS
Experimental: TPR-MET Ba/F3 cells were created by stably transducing the human TPR-MET gene into Ba/F3 cells using a retroviral system. All cell lines were grown in RPMI-1640 supplemented with 1× penicillin/streptomycin and 10% fetal bovine (Invitrogen, Carlsbad, Calif.). The cells were maintained in a 5% CO2 humidified incubator at 37° C.
Compounds were tested in the following assays in duplicate.
96-well XTT assay (Ba/F3 cells): Cells were grown in growth media containing various concentrations of compounds (duplicates) on a 96-well plate for 72 hours at 37° C. The starting cell number was 5000-8000 cells per well and volume was 120 μl. At the end of the 72-hour incubation, 40 μl of XTT labeling mixture (50:1 solution of sodium 3′-[1-(phenylamino-carbonyl)-3,4-tetrazolium]-bis(4-methoxy-6-nitro) benzene sulfonic acid hydrate and Electron-coupling reagent: PMS (N-methyl dibenzopyrazine methyl sulfate) were added to each well of the plate. After an additional 2-6 hours of incubation at 37° C., the absorbance reading at 405 nm with background correction at 650 nm was measured with a spectrophotometer.

c-MET, sequence (P08581 1078-1345 limits assumed): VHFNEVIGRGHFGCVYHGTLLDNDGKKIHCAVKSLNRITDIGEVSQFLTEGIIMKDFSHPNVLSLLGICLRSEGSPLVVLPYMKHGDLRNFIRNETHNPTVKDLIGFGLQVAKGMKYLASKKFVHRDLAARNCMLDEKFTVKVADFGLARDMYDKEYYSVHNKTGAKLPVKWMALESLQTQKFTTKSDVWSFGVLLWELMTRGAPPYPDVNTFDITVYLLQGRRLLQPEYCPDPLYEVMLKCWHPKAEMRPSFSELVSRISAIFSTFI

## N#Cc1cccc(-c2ccc3nnc(Sc4ccc5ncccc5c4)n3n2)c1 [Compound 21, 3-[3-(Quinolin-6-ylsulfanyl)-[1,2,4]triazolo[4,3-b]pyridazin-6-yl]-benzonitrile]
[1]
  IC50: < 100 nM
[2]
  GI50: ≤ 100 nM

## CNC(=O)c1ccc(-c2ccc3nnc(Sc4ccc5ncn(C)c5c4)n3n2)cc1F [Compound 19, 2-Fluoro-N-methyl-4-[3-(3-methyl-3H-benzoimidazol-5-ylsulfanyl)-[1,2,4]triazolo[4,3-b]pyridazin-6-yl]-benzamide]
[1]
  IC50: < 100 nM
[2]
  GI50: ≤ 100 nM

## N#Cc1cccc(-c2ccc3nnc(Sc4cc5cccnc5cc4F)n3n2)c1 [Compound 23, 3-[3-(7-Fluoro-quinolin-6-ylsulfanyl)-[1,2,4]triazolo[4,3-b]pyridazin-6-yl]-benzonitrile]
[1]
  IC50: < 100 nM
[2]
  GI50: ≤ 100 nM

## N#Cc1cccc(-c2ccc3nnc(Sc4ccc5ncsc5c4)n3n2)c1 [Compound 22, 3-[3-(Benzothiazol-6-ylsulfanyl)-[1,2,4]triazolo[4,3-b]pyridazin-6-yl]-benzonitrile]
[1]
  IC50: < 100 nM
[2]
  GI50: 100 to 1000 nM

## CNC(=O)c1ccc(-c2ccc3nnc(Sc4cc5scnc5cc4F)n3n2)cc1F [Compound 20]
[1]
  IC50: < 100 nM
[2]
  GI50: ≤ 100 nM
